The results in this text go back to US10227373B2 (priority 2014, dated 2019).

pEC50, pIC50: −log10 of the molar value. Values joined by “and” are separate entries in the source; they are usually repeats but may differ in a detail not shown here. Equal entries are not always repeated. Where two headings read alike, the source gives them in different places. Marks after values point to notes of the source that are not given here. Some results are limits rather than exact numbers.

The subject of data set [1] is Dengue.
Data set [2] relates to Vaccinia.
Data set [3] addresses S-adenosylhomocysteine hydrolase (SAHase) (Oryctolagus cuniculus, UniProt A0A5F9DS62). The data set can be described thus: SAHase inhibition (release of free homocysteine). The data set is classed as biochemical. The note with it: SAHase from rabbit erythrocytes; read-out: IC50 versus SAHase.
The subject of data set [4] is Ebola virus.
A short description of data set [5]: in vitro. The conditions noted are these: human.
In data set [6] the test system is Ebola virus. The data set can be described thus: microbe, parasite or virus in culture. The note with it: Zaire ebolavirus, read-out: EC50 (IC50).
In the next data set the test system is measles virus. Put plainly: microbe, parasite or virus in culture. The conditions noted are these: Measles morbillivirus, Vero 76, read-out: drug concentration to reduce viral replication (EC50). The data set is classed as cell-based.
The test system of data set [7] is Dengue. The data set can be described thus: microbe, parasite or virus in culture. The data set is classed as cell-based.
The subject of another data set is HCMV. Put plainly: microbe, parasite or virus in culture. Format: cell-based, human cytomegalovirus. The note with it: Human betaherpesvirus 5, HFF.
Data set [8] in a line: in vitro. The conditions noted are these: human. This is another data set of the same source.
A further data set has as its system HBV. Put plainly: microbe, parasite or virus in culture. The data set is classed as cell-based, hepatitis B virus.
A further data set has as its system Measles. Put plainly: microbe, parasite or virus in culture. The data set is classed as cell-based. The conditions noted are these: Measles morbillivirus, Vero 76.
Data set [9] can be described thus: in vitro. The note with it: African green monkey.
Data set [10] in a line: in vitro. The note with it: human. The source holds these as a separate data set.
A further data set concerns NOV. The data set can be described thus: microbe, parasite or virus in culture. Format: cell-based. The note with it: Norovirus, HG23.
The next data set relates to Ebola (Zaire). Put plainly: microbe, parasite or virus in culture. The data set is classed as cell-based. The note with it: Zaire ebolavirus, Vero.
Data set [11] has as its system Vaccinia. Put plainly: microbe, parasite or virus in culture. Format: cell-based, vaccinia virus.
Data set [12] is described as follows: in vitro. The conditions noted are these: human. This is another data set of the same source.

Chain of S-adenosylhomocysteine hydrolase (SAHase) (A0A5F9DS62 1-428): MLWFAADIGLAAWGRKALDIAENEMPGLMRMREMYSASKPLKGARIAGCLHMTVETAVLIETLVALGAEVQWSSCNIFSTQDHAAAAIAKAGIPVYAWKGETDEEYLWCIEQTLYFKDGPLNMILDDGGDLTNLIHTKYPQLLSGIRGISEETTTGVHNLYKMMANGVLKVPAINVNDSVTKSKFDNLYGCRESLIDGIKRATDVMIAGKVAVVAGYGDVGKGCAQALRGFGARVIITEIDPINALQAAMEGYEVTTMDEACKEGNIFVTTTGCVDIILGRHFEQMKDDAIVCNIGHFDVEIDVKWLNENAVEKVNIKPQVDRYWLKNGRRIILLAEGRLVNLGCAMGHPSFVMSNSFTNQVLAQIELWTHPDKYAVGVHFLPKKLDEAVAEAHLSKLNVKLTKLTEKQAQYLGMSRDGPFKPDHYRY

`Nc1ncc(Br)c2c1ncn2[C@@H]1C[C@H](CO)[C@@H](O)[C@H]1O` [3-Bromo-3-deazaaristeromycin]: the “SI (CC50/EC50)” value in the data set with Dengue [1] was 2; in the data set with Influenza B it was above 340; with Tacaribe it was 7.9; in the data set with Rift Valley Fever, 5; in the data set with Flu A (H1N1) it was 0; in the data set with Flu A (H3N2), 0. Also, the “SI (CC50/EC50)” value in the data set with Flu A (H5N1) is given as above 260; in the data set on Vaccinia [2] it was above 1.3. For the same compound, in the data set on MDCK cells, the CC50 was above 290 µM. Also, the pEC50 with Influenza B is 6.08; in the data set on Flu A (H1N1), below 3.54; in the data set with Flu A (H3N2) it was below 3.54; with Flu A (H5N1), 5.94.

On to `Nc1ncc(Br)c2c1ncn2[C@@H]1C=C(CO)[C@@H](O)[C@H]1O` [3-Bromo-3-deazaneplanocin], for which the “SI (CC50/EC50)” value is 160 with Junin; 57 in the data set with Dengue [1]; 470 in the data set with Feline herpes; below 7 with Influenza B; 140 in the data set with Punta Toro; above 2000 in the data set on Tacaribe. In addition, the “SI (CC50/EC50)” value is listed as 250 in the data set with Rift Valley Fever; below 4.3 with Epstein Barr; above 2345 in the data set with Flu A (H1N1); above 190 with Flu A (H3N2); above 310 in the data set with Flu A (H5N1); 24 with Pichinde. The CC50/EC50 in the data set with Ebola was 3; in the data set with Marburg, 1100. The negative-log EC50 (pEC50) with Ebola is 5.48; in the data set on Influenza B, below 6.80; in the data set with Flu A (H1N1), above 7.03; in the data set with Flu A (H3N2), 5.81; in the data set on Flu A (H5N1), 6.03; with Marburg, 8.05. In addition, the CC50 with CRFK cells was 94^b; in the data set with Akata cells, 0.13^b. In the data set with Vero cells, the “MCC (minimum concentration causing microscopically detectable alteration of normal cell morphology)” value is on record as >100^d. In data set [3], the pIC50 was 8.57.

Turning to `Nc1nccc2c1ncn2[C@@H]1C[C@@H](CO)[C@H](O)[C@@H]1O` [carbocyclic 3-deazaadenosine, reference compound], the “EC90 (IC90; concentration inhibiting viral replication by 90%)” value in the data set on Ebola virus [4] was > 126.5 µM and 240.3 µM.

For `Nc1nccc2c1ncn2C1=C[C@H](CO)[C@@H](O)[C@H]1O` [“D”-3-Deazaisoneplanocin, D-1′,6′-iso-3-deazaneplanocin], in the data set “in vitro [5]”, the CC50 is above 100 µM. For the same compound, the negative logarithm of the EC50 (pEC50) in the data set with Ebola virus [6] was above 6.49. Further, in the data set with Ebola virus [4], the CC50/EC50 was above 313 µM and the “EC90 (IC90; concentration inhibiting viral replication by 90%)” value was determined as 74.1 µM. Also, the EC50 in the data set on measles virus was below 0.1 µg/mL.

For the compound `Nc1ncnc2c1ncn2C1=C[C@H](CO)[C@@H](O)[C@H]1O` [“D”-Isoneplanocin, (1R,2S,5R)-3-(6-Amino-9H-purin-9-yl)-5-(hydroxymethyl)cyclopent-3-ene-1,2-diol], the negative-log EC50 (pEC50) in the data set with Dengue [7] is 5.82; with Dengue [7] (Dengue virus, Vero 76), 5.96; in the data set with HCMV, 6.96; in the data set with HBV (Hepatitis B virus), 5.14; in the data set with Measles, above 6.42; in the data set on NOV, 6.11. The pEC50 in the data set on Ebola (Zaire) is 6.42; with Vaccinia [11] (Orthopoxvirus vaccinia, HFF), 5.00. The 90% effect concentration (EC90) was above 12 µM in the data set on HCMV; 35 µM in the data set with HBV (Hepatitis B virus); 8.88 µM in the data set with NOV; above 300 µM in the data set with Vaccinia [11] (Orthopoxvirus vaccinia, HFF). Besides, the CC50 is above 100 µM in “in vitro [8]”, 1.3 µM in “in vitro [9]” and above 100 µM in “in vitro [10]”.

With `Nc1nccc2c1ncn2C1=C[C@@H](CO)[C@H](O)[C@@H]1O` [“L”-3-Deazaisoneplanocin, L-1′,6′-iso-3-deazaneplanocin], in “in vitro [5]”, the CC50 was above 100 µM. Also, in the data set with Ebola virus [6], the pEC50 is above 6.49. Further, in the data set with Ebola virus [4], the CC50/EC50 was above 313 µM and the “EC90 (IC90; concentration inhibiting viral replication by 90%)” value is below 0.32 µM.

With `Nc1ncnc2c1ncn2C1=C[C@@H](CO)[C@H](O)[C@@H]1O` [“L”-Isoneplanocin, (1S,2R,5S)-3-(6-Amino-9H-purin-9-yl)-5-(hydroxymethyl)cyclopent-3-ene-1,2-diol], the pEC50 is 5.24 in the data set with Dengue [7]; 5.21 in the data set with Dengue [7] (Dengue virus, Vero 76); 5.43 in the data set with HCMV; 6.14 in the data set with Measles; 4.96 with NOV; 6.12 in the data set with Ebola (Zaire). Also, the EC90 with HCMV came to 6.86 µM; in the data set on NOV, 89 µM. Moreover, the Antiviral activity result in the data set with HBV and in the data set with Vaccinia [11] was “inactive” in each case. For the same compound, the results for the CC50 in the data set “in vitro [12]”, in “in vitro [9]” and in the data set “in vitro [10]” were above 300 µM, 11.4 µM and above 300 µM, respectively.

As usually defined, the pEC50 is the EC50 on a negative log10 scale, so that one unit is a factor of ten. By pIC50 is commonly meant the IC50 on a negative log10 scale, so that one unit is a factor of ten. For orientation: EC90 means the concentration at which the effect reaches the 90% level.
